Measured values taken from US20260315492A1, “5,6-FUSED BICYCLIC AMIDES AND COMPOSITIONS FOR USE AS 15-PROSTAGLANDIN DEHYDROGENASE MODULATORS” (AMGEN INC., priority 2023, published 2026).

What follows are compounds tested against T1, human recombinant 15-PGDH (Homo sapiens, UniProt P15428) (assay: Inhibition of recombinant 15-PGDH enzymatic activity (NADH quantification after addition of PGE2 and NAD+)). Conditions: not given.
T1 sequence (P15428 1-266): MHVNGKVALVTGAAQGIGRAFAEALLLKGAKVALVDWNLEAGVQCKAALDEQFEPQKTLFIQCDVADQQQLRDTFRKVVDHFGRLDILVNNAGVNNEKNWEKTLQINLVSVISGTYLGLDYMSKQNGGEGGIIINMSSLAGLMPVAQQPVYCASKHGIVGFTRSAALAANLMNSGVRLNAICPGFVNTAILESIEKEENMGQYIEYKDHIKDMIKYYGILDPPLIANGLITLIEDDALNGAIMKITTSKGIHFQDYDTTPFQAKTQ
Format: biochemical
Description: The compound dose-response of its inhibition of 15-PGDH activity was determined in human recombinant 15-PGDH enzymatical assays. These assays measured 15-PGDH enzymatic activity by quantifying the amount of NADH produced during a 60-minute reaction initiated by the addition of PGE2 and NAD+. Under the conditions of these experiments, the increase of NADH signal upon oxidation of PGE2 and reduction of NAD+ was linearly proportional to 15-PGDH enzymatic activity. The recombinant human, mouse, rat and dog 15-PGDH enzymatic assays were performed in a 25 μL volume of reaction buffer containing 50 mM Tris, pH 7.5, 0.01% Tween-20 and 100 μM DTT in a 384-well microtiter plate. In concentration-response experiments with tested compounds, 22 concentrations from 2-fold serial dilutions in DMSO were pre-incubated with 15-PGDH for 15 minutes at room temperature. Then, PGE2 and ß-NAD+ were added to initiate the 15-PGDH reaction. After 60 minutes at room temperature, the reaction was quenched and NADH signal was measured using a microtiter plate reader.
The following data (Table 11-1) provides the IC50 of each compound for inhibiting enzymatic activity of recombinant 15-PGDH in the assay described above.

For Cn1cc2cc(-c3cc(C4CCC4)c4c(N)c(C(=O)N5CCC(F)(F)CC5)sc4n3)cnc2n1 [Compound B4, (3-amino-4-cyclobutyl-6-(2-methyl-2H-pyrazolo[3,4-b]pyridin-5-yl)thieno[2,3-b]pyridin-2-yl)(4,4-difluoro-1-piperidinyl)methanone], the IC50 was 0.387 nM.

Same assay, conditions: recombinant 15-PGDH; 15 min pre-incubation, 60-minute reaction, room temperature, pH 7.5; PGE2 and NAD+; read-out: PGDH-Lumi IC50

Point of comparison: Cc1c(C(=O)N2CCOCC2)sc2cc(-c3cnc4nn(C)cc4c3)ccc12 [Compound A2, (3-methyl-6-(2-methyl-2H-pyrazolo[3,4-b]pyridin-5-yl)-1-benzothiophen-2-yl)(4-morpholinyl)methanone], IC50 163 nM. Against it:
- C[C@@H]1COCCN1C(=O)c1cc2c(C3CC3)cc(-c3cnc4nn(C)cc4c3)nc2s1 (single isomer, unassigned) [Compound B17R] — 52-fold lower, 3.11 nM
- CC1CC(F)(F)CCN1C(=O)c1cc2ccc(-c3cnc4nn(C)cc4c3)nc2s1 (single isomer, unassigned) [Compound B27R] — 110-fold lower, 1.51 nM
- C[C@H]1CC(F)(F)CCN1C(=O)c1cc2ccc(-c3cnc4nn(C)cc4c3)nc2s1 (single isomer, unassigned) [Compound B27S] — 130-fold lower, 1.24 nM
- Cn1cc2cc(-c3ccc4cc(C(=O)N5C[C@H]6CC[C@@H]5CO6)sc4n3)cnc2n1 (stereo in doubt) [Compound B52, (6-(2-methyl-2H-pyrazolo[3,4-b]pyridin-5-yl)thieno[2,3-b]pyridin-2-yl)(2-oxa-5-azabicyclo[2.2.2]octan-5-yl)methanone] — 93-fold lower, 1.75 nM
- Cc1c(C(=O)N2CCOC[C@H]2C)sc2cc(-c3cnc4nn(C)cc4c3)ccc12 [Compound A1R, (3-methyl-6-(2-methyl-2H-pyrazolo[3,4-b]pyridin-5-yl)-1-benzothiophen-2-yl)((3R)-3-methyl-4-morpholinyl)methanone] — 1.7-fold higher, 273 nM
- Cc1c(C(=O)N2CCOC[C@@H]2C)sc2cc(-c3cnc4nn(C)cc4c3)ccc12 [Compound A1S, (3-methyl-6-(2-methyl-2H-pyrazolo[3,4-b]pyridin-5-yl)-1-benzothiophen-2-yl)((3S)-3-methyl-4-morpholinyl)methanone] — within 1.5-fold, 217 nM
- Cc1c(C(=O)N2CCC(F)(F)CC2)sc2cc(-c3cnc4nn(C)cc4c3)ccc12 [Compound A3, (4,4-difluoro-1-piperidinyl)(3-methyl-6-(2-methyl-2H-pyrazolo[3,4-b]pyridin-5-yl)-1-benzothiophen-2-yl)methanone] — 14-fold lower, 11.7 nM
- CO[C@@H]1CCN(C(=O)c2sc3cc(-c4cnc5nn(C)cc5c4)ccc3c2C)C1 [Compound A4R, ((3R)-3-methoxy-1-pyrrolidinyl)(3-methyl-6-(2-methyl-2H-pyrazolo[3,4-b]pyridin-5-yl)-1-benzothiophen-2-yl)methanone] — within 1.5-fold, 225 nM
- CO[C@H]1CCN(C(=O)c2sc3cc(-c4cnc5nn(C)cc5c4)ccc3c2C)C1 [Compound A4S, ((3S)-3-methoxy-1-pyrrolidinyl)(3-methyl-6-(2-methyl-2H-pyrazolo[3,4-b]pyridin-5-yl)-1-benzothiophen-2-yl)methanone] — 8.4-fold lower, 19.5 nM
- COCCN(C)C(=O)c1sc2cc(-c3cnc4nn(C)cc4c3)ccc2c1C [Compound A5, N-(2-methoxyethyl)-N,3-dimethyl-6-(2-methyl-2H-pyrazolo[3,4-b]pyridin-5-yl)-1-benzothiophene-2-carboxamide] — 1.9-fold lower, 87.8 nM
- Cc1c(C(=O)N2CCOC(C)(C)C2)sc2cc(-c3cnc4nn(C)cc4c3)ccc12 [Compound A6, (2,2-dimethyl-4-morpholinyl)(3-methyl-6-(2-methyl-2H-pyrazolo[3,4-b]pyridin-5-yl)-1-benzothiophen-2-yl)methanone] — within 1.5-fold, 185 nM
- CO[C@@H]1CCCN(C(=O)c2sc3cc(-c4cnc5nn(C)cc5c4)ccc3c2C)C1 [Compound A7R, ((3R)-3-methoxy-1-piperidinyl)(3-methyl-6-(2-methyl-2H-pyrazolo[3,4-b]pyridin-5-yl)-1-benzothiophen-2-yl)methanone] — 3.3-fold lower, 49.5 nM
- CO[C@H]1CCCN(C(=O)c2sc3cc(-c4cnc5nn(C)cc5c4)ccc3c2C)C1 [Compound A7S, ((3S)-3-methoxy-1-piperidinyl)(3-methyl-6-(2-methyl-2H-pyrazolo[3,4-b]pyridin-5-yl)-1-benzothiophen-2-yl)methanone] — 2.5-fold lower, 66.4 nM
- Cc1c(C(=O)N2CCOCC2)sc2cc(-c3cncnc3)ccc12 [Compound A8, (3-methyl-6-(5-pyrimidinyl)-1-benzothiophen-2-yl)(4-morpholinyl)methanone] — 28-fold higher, 4500 nM
- Cc1c(C(=O)N2CCOCC2)sc2cc(-c3ccc(=O)n(C)c3)ccc12 [Compound A9, 1-methyl-5-(3-methyl-2-(4-morpholinylcarbonyl)-1-benzothiophen-6-yl)-2(1H)-pyridinone] — 30-fold higher, 4960 nM
- Cc1c(C(=O)N2CCOCC2)sc2cc(-c3cnc(NCCO)nc3)ccc12 [Compound A10] — 9.9-fold higher, 1610 nM
- Cc1c(C(=O)N2CCOCC2)sc2cc(-c3ccc4nn(C)cc4c3)ccc12 [Compound A11, (3-methyl-6-(2-methyl-2H-indazol-5-yl)-1-benzothiophen-2-yl)(4-morpholinyl)methanone] — 5.2-fold higher, 851 nM
- Cn1cc2cc(-c3cc(C4CCC4)c4c(N)c(C(=O)N5CCOCC5)sc4n3)cnc2n1 [Compound B3, (3-amino-4-cyclobutyl-6-(2-methyl-2H-pyrazolo[3,4-b]pyridin-5-yl)thieno[2,3-b]pyridin-2-yl)(4-morpholinyl)methanone] — 230-fold lower, 0.711 nM
- Cn1cc2cc(-c3cc(C4CCC4)c4c(N)c(C(=O)N5CCCCC5)sc4n3)cnc2n1 [Compound B5, (3-amino-4-cyclobutyl-6-(2-methyl-2H-pyrazolo[3,4-b]pyridin-5-yl)thieno[2,3-b]pyridin-2-yl)(1-piperidinyl)methanone] — 640-fold lower, 0.255 nM
- C[C@@H]1COCCN1C(=O)c1sc2nc(-c3cnc4nn(C)cc4c3)cc(C3CCC3)c2c1N [Compound B6R, (3-amino-4-cyclobutyl-6-(2-methyl-2H-pyrazolo[3,4-b]pyridin-5-yl)thieno[2,3-b]pyridin-2-yl)((3R)-3-methyl-4-morpholinyl)methanone] — 200-fold lower, 0.816 nM
- C[C@H]1COCCN1C(=O)c1sc2nc(-c3cnc4nn(C)cc4c3)cc(C3CCC3)c2c1N [Compound B6S, (3-amino-4-cyclobutyl-6-(2-methyl-2H-pyrazolo[3,4-b]pyridin-5-yl)thieno[2,3-b]pyridin-2-yl)((3S)-3-methyl-4-morpholinyl)methanone] — 290-fold lower, 0.554 nM
- CC(C)c1cc[n+]([O-])c2sc(C(=O)N3CCCCC3)cc12 [Compound B7, (7-oxido-4-(2-propanyl)thieno[2,3-b]pyridin-2-yl)(1-piperidinyl)methanone] — higher, > 100000 nM
- Cn1cc2cc(-c3ccc4cc(C(=O)N5CCOCC5)sc4n3)cnc2n1 [Compound B8, (6-(2-methyl-2H-pyrazolo[3,4-b]pyridin-5-yl)thieno[2,3-b]pyridin-2-yl)(4-morpholinyl)methanone] — 29-fold lower, 5.55 nM
- C[C@@H]1COCCN1C(=O)c1cc2ccc(-c3cnc4nn(C)cc4c3)nc2s1 [Compound B9R, ((3R)-3-methyl-4-morpholinyl)(6-(2-methyl-2H-pyrazolo[3,4-b]pyridin-5-yl)thieno[2,3-b]pyridin-2-yl)methanone] — 26-fold lower, 6.39 nM
- C[C@H]1COCCN1C(=O)c1cc2ccc(-c3cnc4nn(C)cc4c3)nc2s1 [Compound B9S, ((3S)-3-methyl-4-morpholinyl)(6-(2-methyl-2H-pyrazolo[3,4-b]pyridin-5-yl)thieno[2,3-b]pyridin-2-yl)methanone] — 32-fold lower, 5.05 nM
